Measurements published in patent publication US12569506B2, “Methods of treating osteonecrosis with LLP2A-bisphosphonate compounds” (The Regents of the University of California, priority 2016, dated 2026).
Where two headings read alike, the source gives them in different places.

Test system: dexamethasone-treated mice
Assay type: in vivo, BALB/c mice
Details: for Samples with three or more osteonecrosis characteristics (number/total) / Samples with three or more osteonecrosis characteristics (percent): day 90
Experimental: FIG. 7. Prevalence of osteonecrosis in dexamethasone-treated mice. Mice were treated for 90 days with dexamethasone (Dex), 4 mg/l in drinking water or placebo (PL) (fresh water). At day 30, the Dex-treated mice were re-randomized to Dex alone, Dex+250 μg/kg LLP2A-Ale, Dex+500 μg/kg LLP2A-Ale, and Dex+750 μg/kg LLP2A-Ale. The LLP2A-Ale treatments were given on days 30, 45, 60, and 75. All mice were euthanized at day 90. Right and left distal femurs were fixed in 10% neutral buffer formalin and decalcified. The specimens were dehydrated, embedded in paraffin, cut into 5 micron sections and H&E stained. The sections were evaluated for osteonecrosis by bright light microscopy using modified criteria reported by Yang et al., J. Orthop. Res., 27:169-75 (2009)), which defines osteonecrosis by the presence of the five following characteristics: (1) empty lacunae, (2) pyknotic osteocyte nuclei in areas of empty lacunae and necrosis of adjacent bone marrow, (3) presence of excessive fat cells in the bone marrow, (4) cartilage degradation, and (5) presence of fibrin thrombi in the blood vessels. Each GC-treated group and placebo group were assessed for all five osteonecrosis characteristics or the presence of at least three of the five osteonecrosis characteristics described above.
The efficacy of LLP2A-Ale was evaluated over a 90 day study using a mouse model of glucocorticoid-induced osteonecrosis. Seven week-old male mice (BALB/c (n=80, Jackson laboratories, USA) were housed in a sanitary ventilated animal room maintained at 20° C. with a 12-hour light/dark cycle. All animals were handled according to the USDA animal care guidelines with the approval of the UC Davis Committee on Animal Research. The mice were given water and standard commercial rodent chow (22/5 Rodent Diet; Teklad, Madison, WI) ad libitum. The animals were weight randomized to either a placebo group (fresh water) or glucocorticoid only (4 mg/L dexamethasone (Dex) in drinking water) and treated for 90 days. At day 30, the Dex-treated mice were then re-randomized to Dex alone, Dex+250 μg/kg LLP2A-Ale, Dex+500 μg/kg LLP2A-Ale and Dex+750 μg/kg LLP2A-Ale. The LLP2A-Ale treatments were given on days 30, 45, 60 and 75. Additionally, 0.1 mg/kg methotrexate was administered twice weekly by subcutaneous injection from day 1-42 in all groups receiving glucocorticoid.
All the mice were euthanized at day 90. The body weights of all the study animals were assessed each week. If the study animals had 10% loss of body weight compared to the previous week, the dose of dexamethasone was reduced to 2 mg/L, until weight gain was observed. All of the animals were injected with calcein (30 mg/kg) and alizarin red (20 mg/kg) at 7 and 2 days before euthanization.
Both the right and left distal femurs were fixed in 10% neutral buffered formalin and were shaken for 3 days, then decalcified in 5% EDTA until the bones were fully decalcified. The specimens were then processed in ascending concentrations of ethanol and embedded in paraffin. Tissue sections were cut into 5 microns sections, stained with hematoxylin and eosin and evaluated for the presence of osteonecrosis by bright field microscopy at 20× magnification. Experimental methods are also described in Mohan et al., Calif Tissue Int (2016) doi:10.1007/s00223-016-0195-6, which is incorporated herein by reference in its entirety for all purposes. Osteonecrosis was detected using modified criteria reported by Yang el al., (a mouse model for glucocorticoid-induced osteonecrosis: Effect of a steroid holiday. J Orthop Res. 2009; 27:169-75) which defines osteonecrosis as requiring all of the following changes: (1) empty lacunae, (2) pyknotic osteocyte nuclei in areas of empty lacunae and necrosis of adjacent bone marrow, (3) presence of excessive fat cells in the bone marrow, (4) cartilage degradation and (5) presence of fibrin thrombi in the blood vessels. […]

[1] = Dex + LLP2A-Ale 250 μg/kg on days 30, 45, 60, 75
[2] = Dex + LLP2A-Ale 500 μg/kg on days 30, 45, 60, 75
[3] = LLP2A-Ale 750 μg/kg on days 30, 45, 60, 75

Cc1ccccc1NC(=O)Nc1ccc(CC(=O)N[C@@H](CCCCNC(=O)/C=C/c2cccnc2)C(=O)N[C@@H](CCCC(=O)O)C(=O)NC2(C(=O)NCCOCCOCCNC(=O)CCC(=O)NCCOCCOCCNC(=O)CCC(=O)N[C@@H](CCCCNC(=O)[C@H](N)CSC3CC(=O)N(CC4CCC(C(=O)NCCCC(O)(P(=O)(O)O)P(=O)(O)O)CC4)C3=O)C(N)=O)CCCCC2)cc1 (stereo partly shown) [LLP2A-Ale]
Samples with three or more osteonecrosis characteristics (number/total) [1]: 12/16 | Samples with three or more osteonecrosis characteristics (percent) [1]: 75% | Samples with three or more osteonecrosis characteristics (number/total) [2]: 9/16 | Samples with three or more osteonecrosis characteristics (percent) [2]: 56% | Number of mice per group showing all five (or at least three) osteonecrosis characteristics (Dex alone vs Dex+LLP2A-Ale groups, day 90 (FIG. 7)): decreased | Samples with three or more osteonecrosis characteristics (number/total) [3]: 11/16 | Samples with three or more osteonecrosis characteristics (percent) [3]: 69%
